Tested on: 777334-354-R2-J4-PDC tumor spheroids with HUVEC/MSC, viability
Assay: Anticancer human tumor 777334-354-R2-J4-PDC patient-derived pancreatic adenocarcinoma cell line growth inhibition [GQUAD]
Conditions: for IC50: curve of first compound; for viability, T/C: stronger effect = lower value
Text: DNA G-quadruplex Stabilizer Agents in Combinations in Complex Spheroids
A high-throughput screen of multi-cell type tumor spheroids was designed to identify active combinations of DNA G-quadruplex stabilizer agents and targeted small molecules. Complex spheroids include a stromal component modeled by human endothelial cells (HUVEC) and fibroblasts modeled by human mesenchymal stem cells (MSCs). The concentration ranges selected for each drug and investigational agent were based upon clinically achievable concentrations if the clinical Cmax of the agent was known.
Compounds. The drugs and investigational agents: pidnarulex (CX-5461; NSC782164), APTO-253 (NSC789042), BRACO-19 (NSC847499), peposertib (NSC802822), ceralasertib (NSC780249), elimusertib (NSC800525), camonsertib (NSC841442), AZD-1390 (NSC803789), olaparib (NSC753686), talazoparib (NSC767125), ART-558 (NSC835418), sotorasib (NSC818433), MRTX-1133 (NSC836407), SN-38 (NSC673596), topotecan (NSC609699), etoposide (NSC141540), doxorubicin (NSC123127), gemcitabine (NSC613327), 5-fluorouracil (NSC19893), paclitaxel (NSC125973), vemurafenib (NSC761431), panobinostat (NSC761190), R-306465 (JNJ-16241199; NSC773264), adavosertib (NSC754352), TP-3654 (NSC805149), carboplatin (NSC241240), KSQ-4279 (NSC840948), and staurosporine (NSC755774) were obtained from the National Cancer Institute (NCI) Developmental Therapeutics Program Chemical Repository (34). The FDA-approved anticancer drug set is available from the NCI Developmental Therapeutics Program. […] The stock solutions were prepared in dimethyl sulfoxide (DMSO, Sigma-Aldrich, St. Louis, MO, cat. D2650) at 800-fold the tested concentration and stored at -70 degrees C prior to their use. All drugs and investigational agents were tested over a range starting from a high concentration at or near the clinical Cmax and decreasing in half-log increments. If the clinical Cmax for an agent had not been determined, the highest concentration tested was 10 microM.
2.3 Cell Culture. All cells were maintained in an incubator at 37 degrees C and 5% CO2 with 95% humidity. The PDC lines were cultured according to standard operating procedures established by the NCI PDMR. All PDCs were thawed and cultured in Matrigel-coated flasks prepared with a working solution of 1X Ham's F-12 nutrient mix, without supplementation (Invitrogen, cat. 11765054), 100 U/mL penicillin-streptomycin (Invitrogen, cat. 15140122), and 2.5% Matrigel (Corning Inc., cat. 354248) for the first three passages. The 857933-349-R-J2-PDC line was cultured in 6C/Colon 1B media, which includes advanced DMEM/F-12 (Thermo Fisher Scientific, cat. 12634028), 10 mM HEPES (Thermo Fisher Scientific, cat. 15630080), 1X GlutaMAX supplement (Thermo Fisher Scientific, cat. 35050061), 0.1 mg/mL primocin (InvivoGen, cat. ant-pm-2), 10% defined fetal bovine serum, heat inactivated (HyClone Laboratories Inc., cat. SH30070.03HI), 50% L-WRN conditioned media (ATCC, cat. CRL-3276), 1.25 mM N-Acetyl-L-cysteine (Sigma-Aldrich, cat. A9165), 10 mM nicotinamide (Sigma-Aldrich, cat. N0636), 1X B-27 supplement (Thermo Fisher Scientific, cat. 17504044), 1X N-2 supplement (Thermo Fisher Scientific, cat. 17502048), 10 microM Y-27632 dihydrochloride (Tocris Bioscience, cat. 1254), and 50 ng/mL human EGF recombinant protein (Thermo Fisher Scientific, cat. PHG0311). The 485176-168-R4-J1-PDC line was cultured in Panc media, which includes all 6C/Colon 1B media components plus 100 ng/mL human FGF-10 (Thermo Fisher Scientific, cat. 100-26), 500 nM SB-431542 (Selleckchem, cat. S1067), and gastrin (Tocris, cat. 3006).
[…]
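Also: spheroids exposed to compounds for 7 days before readout.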

Which results are given for `CC(C)(O)C1CCC(Nc2ccc3ncc(-c4cccc(C(F)(F)F)c4)n3n2)CC1` (configuration not stated) + CN(C)c1ccc(Nc2c3ccc(NC(=O)CCN4CCCC4)cc3nc3cc(NC(=O)CCN4CCCC4)ccc23)cc1?
IC50 (second compound 0.0316 µM): 849 nM; IC50 (second compound 0.1 µM): 921 nM; IC50 (second compound 0.316 µM): 1340 nM; IC50 (second compound 1 µM): 1340 nM; IC50 (second compound 3.16 µM): 1060 nM; IC50 (second compound 10 µM): 669 nM; viability, T/C (second compound 0.0316 µM, first compound 0.0316 µM): 99.9%; viability, T/C (second compound 0.0316 µM, first compound 0.1 µM): 90.2%; viability, T/C (second compound 0.0316 µM, first compound 0.316 µM): 90.2%; viability, T/C (second compound 0.0316 µM, first compound 1 µM): 43.4%; viability, T/C (second compound 0.0316 µM, first compound 3.16 µM): 32.3%; viability, T/C (second compound 0.0316 µM, first compound 10 µM): 35.5%; viability, T/C (second compound 0.1 µM, first compound 0.0316 µM): 98.2%; viability, T/C (second compound 0.1 µM, first compound 0.1 µM): 86.5%; viability, T/C (second compound 0.1 µM, first compound 0.316 µM): 81.4%; viability, T/C (second compound 0.1 µM, first compound 1 µM): 47.4%; viability, T/C (second compound 0.1 µM, first compound 3.16 µM): 31.3%; viability, T/C (second compound 0.1 µM, first compound 10 µM): 31.5%; viability, T/C (second compound 0.316 µM, first compound 0.0316 µM): 89%; viability, T/C (second compound 0.316 µM, first compound 0.1 µM): 68.1%; viability, T/C (second compound 0.316 µM, first compound 0.316 µM): 79.7%; viability, T/C (second compound 0.316 µM, first compound 1 µM): 55%; viability, T/C (second compound 0.316 µM, first compound 3.16 µM): 36.6%; viability, T/C (second compound 0.316 µM, first compound 10 µM): 33.9%; viability, T/C (second compound 1 µM, first compound 0.0316 µM): 78.9%; viability, T/C (second compound 1 µM, first compound 0.1 µM): 89.9%; viability, T/C (second compound 1 µM, first compound 0.316 µM): 81.4%; viability, T/C (second compound 1 µM, first compound 1 µM): 56.3%; viability, T/C (second compound 1 µM, first compound 3.16 µM): 29.6%; viability, T/C (second compound 1 µM, first compound 10 µM): 33.3%; viability, T/C (second compound 3.16 µM, first compound 0.0316 µM): 76.8%; viability, T/C (second compound 3.16 µM, first compound 0.1 µM): 82.3%; viability, T/C (second compound 3.16 µM, first compound 0.316 µM): 80.5%; viability, T/C (second compound 3.16 µM, first compound 1 µM): 51.2%; viability, T/C (second compound 3.16 µM, first compound 3.16 µM): 27.9%; viability, T/C (second compound 3.16 µM, first compound 10 µM): 27%; viability, T/C (second compound 10 µM, first compound 0.0316 µM): 83.9%; viability, T/C (second compound 10 µM, first compound 0.1 µM): 77.2%; viability, T/C (second compound 10 µM, first compound 0.316 µM): 67.8%; viability, T/C (second compound 10 µM, first compound 1 µM): 41.6%; viability, T/C (second compound 10 µM, first compound 3.16 µM): 19.1%; viability, T/C (second compound 10 µM, first compound 10 µM): 19.4%
